Tests used:
[1] = test system: HIV-1 Env pseudoviruses; conditions: despite low nanomolar potency; cited from earlier work
[2] = Cytotoxicity in TZM-bl cells; type: cell-based; conditions: human
[3] = test system: VSV-G pseudovirus; type: cell-based; conditions: control for HIV-1 specificity
[4] = test system: U87-CD4-CXCR4 cells; test: Cytotoxicity in U87-CD4-CXCR4 cells; type: cell-based; conditions: at the doses used for this assay
[5] = test system: Cf2Th-CCR5 cells; test: Cytotoxicity in Cf2Th-CCR5 cells; type: cell-based
[6] = Metabolic stability in human liver microsomes; type: in vitro ADME
[7] = test system: CYP3A; test: Cytochrome P450 inhibition CYP3A; type: in vitro ADME; conditions: human
[8] = test system: CYP450 enzymes; test: Cytochrome P450 inhibition, set of CYP450 enzymes; type: in vitro ADME
[9] = phosphate buffer, pH7.4; cited from earlier work
[10] = test system: Caco-2 cell monolayer; conditions: no inhibitor; cited from earlier work

COc1ccnc2[nH]cc(C(=O)C(=O)N3CCN(C(=O)c4ccccc4)C[C@H]3C)c12 [BMS-378806, 4-benzoyl-1-[(4-methoxy-1H-pyrrolo-[2,3-b]pyridin-3-yl)oxoacetyl]-2-(R)-methylpiperazine]
activity against A, C, and D subtypes [1]: weaker activity

NC[C@H](NC(=O)c1ccc(-c2ccc(C(F)(F)F)cn2)[nH]1)c1nc(CO)c(CO)s1 [Compound 36, N-(2-Amino-1-(4,5-bis(hydroxymethyl)thiazol-2-yl)ethyl)-5-(5-(trifluoromethyl)pyridin-2-yl)-1H-pyrrole-2-carboxamide]
CC50 at 3 d [2]: > 113 µM

NC[C@@H](NC(=O)c1ccc(-c2ccc(C(F)(F)F)cn2)[nH]1)c1nc(C(O)CO)cs1 (stereo partly shown) [Compound 29, N-(2-Amino-1-(4-(1,2-dihydroxyethyl)thiazol-2-yl)ethyl)-5-(5-(trifluoromethyl)pyridin-2-yl)-1H-pyrrole-2-carboxamide]
CC50 at 3 d [2]: > 113 µM

Cc1cc(-c2ccc(C(F)(F)F)cn2)[nH]c1C(=O)N[C@H](CN)c1nc(CO)cs1 [Compound 33, N-(2-Amino-1-(4-(hydroxymethyl)thiazol-2-yl)ethyl)-3-methyl-5-(5-(trifluoromethyl)pyridin-2-yl)-1H-pyrrole-2-carboxamide]
CC50 at 72 h [2]: 85 ± 3 µM | activity against the pseudovirus VSV-G [3]: poorly active | toxicity in the U87-CD4-CXCR4 cell line [4]: did not induce toxicity | toxicity at the doses used in this assay [5]: did not show toxicity

COc1cc(-c2ccc(C(=O)N[C@H](CN)c3nc(CO)cs3)[nH]2)ccn1 [Compound 47, N-(2-Amino-1-(4-(hydroxymethyl)thiazol-2-yl)ethyl)-5-(2-methoxypyridin-4-yl)-1H-pyrrole-2-carboxamide]
CC50 at 3 d [2]: > 133 µM

NC[C@H](NC(=O)c1ccc(-c2ccc(C(F)(F)F)cn2)[nH]1)c1ncc(CO)s1 [Compound 6, N-(2-Amino-1-(5-(hydroxymethyl)thiazol-2-yl)ethyl)-5-(5-(trifluoromethyl)pyridin-2-yl)-1H-pyrrole-2-carboxamide]
CC50 at 3 d [2]: > 122 µM

NC[C@@H](NC(=O)c1ccc(-c2ncc(Cl)cn2)[nH]1)c1nc(CO)cs1 [Compound 45, N-(2-Amino-1-(4-(hydroxymethyl)thiazol-2-yl)ethyl)-5-(5-chloropyrimidin-2-yl)-1H-pyrrole-2-carboxamide]
CC50 at 3 d [2]: > 66 µM

NC[C@@H](NC(=O)c1ccc(-c2ccc(F)cn2)[nH]1)c1nc(CO)cs1 [Compound 17, N-(2-Amino-1-(4-(hydroxymethyl)thiazol-2-yl)ethyl)-5-(5-fluoropyridin-2-yl)-1H-pyrrole-2-carboxamide]
CC50 at 3 d [2]: > 138 µM

Cc1cc(-c2ccc(C(F)(F)F)cn2)[nH]c1C(=O)N[C@@H](CN)c1ncc(CO)s1 [Compound 8, N-(2-Amino-1-(5-(hydroxymethyl)thiazol-2-yl)ethyl)-3-methyl-5-(5-(trifluoromethyl)pyridin-2-yl)-1H-pyrrole-2-carboxamide]
activity against the pseudovirus VSV-G [3]: poorly active | toxicity in the U87-CD4-CXCR4 cell line [4]: did not induce toxicity | toxicity at the doses used in this assay [5]: did not show toxicity | microsomal CLint [6]: < 11.6 µL/min/mg | IC50 ([7]; probe midazolam): > 100 µM | IC50 ([7]; probe testosterone): > 62.2 µM | inhibition of CYP1A2, CYP2B6, and CYP3A ([8]; at greater than 50 μM dose levels): no inhibition | inhibition of the other CYP450 enzymes ([8]; at the 100 μM dose level): No inhibitory activities

Cc1ccc(-c2ccc(C(=O)N[C@H](CN)c3nc(CO)cs3)[nH]2)nc1 [Compound 19, N-(2-Amino-1-(4-(hydroxymethyl)thiazol-2-yl)ethyl)-5-(5-methylpyridin-2-yl)-1H-pyrrole-2-carboxamide]
CC50 at 3 d [2]: > 140 µM

COc1cnc(-n2cnc(C)n2)c2[nH]cc(C(=O)C(=O)N3CCN(C(=O)c4ccccc4)CC3)c12 [BMS-626529]
solubility [9]: 0.047 to 0.237 mg/mL | Caco-2 permeability mean Papp A-to-B [10]: 92.7 nm/s | Caco-2 permeability mean Papp B-to-A [10]: 320 nm/s

NC[C@@H](NC(=O)c1ccc(-c2ccc(C(F)(F)F)nc2)[nH]1)c1nc(CO)cs1 [Compound 41, N-(2-Amino-1-(4-(hydroxymethyl)thiazol-2-yl)ethyl)-5-(6-(trifluoromethyl)pyridin-3-yl)-1H-pyrrole-2-carboxamide]
CC50 at 3 d [2]: > 122 µM

NC[C@@H](NC(=O)c1ccc(-c2ccc(C(F)(F)F)cn2)[nH]1)c1ncc(C(O)CO)s1 (stereo partly shown) [Compound 13, N-(2-Amino-1-(5-(1,2-dihydroxyethyl)thiazol-2-yl)ethyl)-5-(5-(trifluoromethyl)pyridin-2-yl)-1H-pyrrole-2-carboxamide]
CC50 at 3 d [2]: > 113 µM

NC[C@H](NC(=O)c1ccc(-c2ccc(C(F)(F)F)nn2)[nH]1)c1nc(CO)cs1 [Compound 44, N-(2-Amino-1-(4-(hydroxymethyl)thiazol-2-yl)ethyl)-5-(6-(trifluoromethyl)pyridazin-3-yl)-1H-pyrrole-2-carboxamide]
CC50 at 3 d [2]: > 73 µM

NC[C@@H](NC(=O)c1ccc(-c2ccc(Cl)nc2)[nH]1)c1nc(CO)cs1 [Compound 39, N-(2-Amino-1-(4-(hydroxymethyl)thiazol-2-yl)ethyl)-5-(6-chloropyridin-3-yl)-1H-pyrrole-2-carboxamide]
CC50 at 3 d [2]: > 132 µM

NC[C@H](NC(=O)c1ccc(-c2ccc(Cl)cn2)[nH]1)c1nc(CO)cs1 [Compound 16, N-(2-Amino-1-(4-(hydroxymethyl)thiazol-2-yl)ethyl)-5-(5-chloropyridin-2-yl)-1H-pyrrole-2-carboxamide]
CC50 at 3 d [2]: > 132 µM

Reference: article PMC7703574 (Journal of medicinal chemistry, 2020)
